We go through 1 compound from paper PMC11451967 (2024).

Each structure is given as a SMILES string.

What all share (assay): fluorescence turn-on, 625 nm
Assay [1] deals with dsDNAmix (DNA, duplex) CGATAAGCGCTTATCGAGTCGACTCGATAAGCGCTTATCG
Conditions: BPC1 1 μM, oligonucleotide 4 μM; significant fluorescence enhancement.

Assay [2] deals with ssDNAmix (DNA, single strand) ATGCTCAGACTGTCAGAGTC
To be noted: BPC1 1 μM, oligonucleotide 4 μM; weak fluorescence enhancement.

Assay [3] deals with NC (RNA, single strand) UUGUACUACACAAAAGUACUG
To be noted: BPC1 1 μM, oligonucleotide 4 μM; no fluorescence increase.

Assay [4] relates to ssRNAmix (RNA, single strand) AUGUACCUAGUCUGACCUAG
Conditions: BPC1 1 μM, oligonucleotide 4 μM; no fluorescence increase.

With `CC[n+]1c(/C=C/C=C2C=CN(c3ccccc3)C=C2)sc2ccccc21`, the binding result in assay [1] is on record as “yes”; in assay [2], “weak”; in assay [3], “no”; in assay [4] it was “no”.
